In general, melting point refers to the temperature of the solid-liquid transition. The term IC50 denotes the midpoint of a concentration-inhibition curve.

A value given as a limit tells only on which side of the number the result lay.

System in the first data set: not given
Assay: not given
Conditions: not given
Compound `O=C(/C=C/c1cc2ccccc2n(Cc2cn(-c3ccc(Cl)cc3)nn2)c1=O)c1cccc(F)c1` [Compound 51] displayed a melting point of 190 to 192 °C.

`Cc1ccc(C(=O)/C=C/c2cc3ccccc3n(Cc3cn(-c4ccccc4)nn3)c2=O)cc1` [Compound 64] registered a melting point of 216 to 218 °C.

Consider `O=C(/C=C/c1cc2ccccc2n(Cc2cn(-c3ccc(Cl)cc3)nn2)c1=O)c1ccc(F)cc1` [Compound 52], for which the melting point was 216 to 218 °C.

The compound `Cc1ccc(-n2cc(Cn3c(=O)c(/C=C/C(=O)c4ccc(Br)cc4)cc4ccccc43)nn2)cc1` [Compound 36] yielded a melting point of 216 to 218 °C.

`O=C(/C=C/c1cc2ccccc2n(Cc2cn(-c3ccc(Cl)cc3)nn2)c1=O)c1ccc(Cl)cc1` [Compound 53] gave a melting point of 180 to 182 °C.

For the compound `COc1ccc(C(=O)/C=C/c2cc3ccccc3n(Cc3cn(-c4ccc(OC)cc4)nn3)c2=O)cc1` [Compound 31], the melting point fell in the range of 190 to 192 °C.

`COc1ccccc1C(=O)/C=C/c1cc2ccccc2n(Cc2cn(-c3ccc(Cl)cc3)nn2)c1=O` [Compound 56] had a melting point of 230 to 232 °C.

The next data set deals with Caco-2 cells. Put plainly: Counter-screen on Caco-2 cells, ATP level by luminescence (ATPlite), 48 h incubation. The data set is classed as cell-based, human. As to conditions: Homo sapiens, Caco-2, 48 h, atmospheric O2, 5% CO2, 48 h, 37 °C. How it is done:
Trophozoites of G. intestinalis strain WB clone C6 (ATCC No. 50803TM) were cultured axenically at 37^∘C in 25-cm^2 flasks containing Diamond’s TYI-S-33 medium supplemented with 10% bovine calf serum, 1 mg/mL bovine bile, 0.1 g/L streptomycin and 100 U/mL penicillin. […] Human epithelial colorectal adenocarcinoma (Caco-2) cells were grown in 25-cm^2 flasks in EMEM supplemented with 1% (v/v) non-essential amino acids, 2 mM glutamine, 5% (v/v) fetal bovine serum, 0.1 g/L streptomycin, and 100 U/mL penicillin.
Cells were detached with 0.5% trypsin-EDTA and seeded in sterile 96-well white clear-bottom plates at the same density of Giardia trophozoites and at increasing concentration of the compound to be tested, as described above. The assays were carried out exactly as reported for the Giardia trophozoites, except that the plates were incubated (still at 37^∘C) at atmospheric O2 level, 5% CO2, and 95% humidity. Each drug concentration was tested in at least seven replicates. MTZ was used as an internal […] control in the assay. Following 48 h incubation with each compound, according to the manufacturer instructions, 100 μL of the ATPlite^TM luminescence assay system (Perkin Elmer) was added to each well for one-step lysis and ATP level detection by luminescence.
Luminometric data were calibrated using ATP standard curves and normalized to the ATP level measured in control DMSO-treated cells (taken as 100%). The measured ATP level percentage was plotted as a function of the compound concentration and the half-maximal inhibitory concentration (IC50) was obtained by fitting the resulting titration profile to the Hill equation ([Goutelle et al., 2008]). The selectivity index (SI) of the compounds was then calculated as the ratio between the IC50 value measured on human cells over the value determined on Giardia trophozoites (SI = IC50,Caco-2/IC50,Giardia).
Selectivity of the newly synthesized compounds toward Giardia was assessed by running a counter-screen on human epithelial Caco-2 cells. […] This allowed us to calculate the compounds SI, defined as the ratio between the IC50 value measured on human cells over the value determined on Giardia trophozoites.
On the technique in general: A counterscreen serves to expose hits that act by an unwanted route or on another target.
`O=C(/C=C/c1cc2ccccc2n(Cc2cn(-c3ccc(Cl)cc3)nn2)c1=O)c1cccc(F)c1` [Compound 51] had an IC50 of at least 100 µM.

`Cc1ccc(C(=O)/C=C/c2cc3ccccc3n(Cc3cn(-c4ccccc4)nn3)c2=O)cc1` [Compound 64] yielded an IC50 of 17.8 µM.

The compound `O=C(/C=C/c1cc2ccccc2n(Cc2cn(-c3ccc(Cl)cc3)nn2)c1=O)c1ccc(F)cc1` [Compound 52] yielded an IC50 of 23.9 µM.

Compound `Cc1ccc(-n2cc(Cn3c(=O)c(/C=C/C(=O)c4ccc(Br)cc4)cc4ccccc43)nn2)cc1` [Compound 36] had an IC50 of at least 50 µM.

In turn, `O=C(/C=C/c1cc2ccccc2n(Cc2cn(-c3ccc(Cl)cc3)nn2)c1=O)c1ccc(Cl)cc1` [Compound 53] gave an IC50 of at least 30 µM.

As to `COc1ccc(C(=O)/C=C/c2cc3ccccc3n(Cc3cn(-c4ccc(OC)cc4)nn3)c2=O)cc1` [Compound 31], the IC50 was at least 80 µM.

Compound `COc1ccccc1C(=O)/C=C/c1cc2ccccc2n(Cc2cn(-c3ccc(Cl)cc3)nn2)c1=O` [Compound 56] registered a half-inhibitory concentration (IC50) of 8.4 µM.

The next data set relates to Giardia intestinalis trophozoites. As to the kind of experiment: Drug susceptibility of Giardia trophozoites, ATP level by luminescence (BacTiter-Glo), 48 h incubation, anaerobic or microaerobic. The data set is classed as cell-based, Giardia intestinalis strain WB clone C6. As to conditions: Giardia duodenalis, 48 h, anaerobic conditions (Anaerocult A), 48 h, 37 °C, ATP level; read-out: Giardia (anaerobiosis) IC50. The procedure: Trophozoites of G. intestinalis strain WB clone C6 (ATCC No. 50803TM) were cultured axenically at 37^∘C in 25-cm^2 flasks containing Diamond's TYI-S-33 medium supplemented with 10% bovine calf serum, 1 mg/mL bovine bile, 0.1 g/L streptomycin and 100 U/mL penicillin. Typically, 50 ml medium was inoculated with 25 × 10^6 cells and after 2 days cells were harvested by chilling the flasks on ice for 30 min for drug susceptibility assays. […] The assays were performed following the procedure described in [Bahadur et al. (2014)], using sterile 96-well white clear-bottom plates. […] Each drug concentration was tested in at least six replicates. MTZ was used as an internal positive control in the assay. The microtiter plates were then incubated at 37^∘C under anaerobic or microaerobic conditions, ensured by the Anaerocult® A or the Anaerocult® […] (Merck), respectively. […] Following 48 h incubation with the compound to be tested, 100 μL of the BacTiter-Glo^TM Microbial Cell Viability Assay System reagent (Promega) was added to each well for one-step lysis and ATP level detection. Plates were then incubated at room temperature for 15 min and ATP levels finally detected by luminescence on a plate reader (Wallac Victor3 1420 Multilabel Counter, PerkinElmer). Luminometric data were calibrated using ATP standard curves and normalized to the ATP level measured in control DMSO-treated cells (taken as 100%). The measured ATP level percentage was plotted as a function of the compound concentration and the half-maximal inhibitory concentration (IC50) was obtained by fitting the resulting titration profile to the Hill equation ([Goutelle et al., 2008]). The selectivity index (SI) of the compounds was then calculated as the ratio between the IC50 value measured on human cells over the value determined on Giardia trophozoites (SI = IC50,Caco-2/IC50,Giardia). The antigiardial activity of the novel compounds 23-67 was tested under both anaerobic and microaerobic conditions. According to ([Dunn et al., 2010]; [Bahadur et al., 2014]), susceptibility of Giardia trophozoites to increasing concentrations of each compound was assessed based on ATP level determination by luminescence. Dose-response curves for each compound were obtained after 48 h-incubation and compared to the data collected under identical conditions with MTZ, the drug of choice for treatment of giardiasis. […] Typical dose-response curves are shown in Figure 2, whereas the IC50 values measured for the synthetic compounds and MTZ under anaerobic and microaerobic conditions are reported in Table 1. […] Under anaerobic conditions, 18 out of the 45 synthetic compounds were as effective as MTZ or more under identical conditions (see Table 1).
Turning to `O=C(/C=C/c1cc2ccccc2n(Cc2cn(-c3ccc(Cl)cc3)nn2)c1=O)c1cccc(F)c1` [Compound 51], the IC50 worked out at 10 µM.

`Cc1ccc(C(=O)/C=C/c2cc3ccccc3n(Cc3cn(-c4ccccc4)nn3)c2=O)cc1` [Compound 64]: the IC50 is 2.8 µM.

On to `O=C(/C=C/c1cc2ccccc2n(Cc2cn(-c3ccc(Cl)cc3)nn2)c1=O)c1ccc(F)cc1` [Compound 52], for which the IC50 worked out at 8.9 µM.

For `Cc1ccc(-n2cc(Cn3c(=O)c(/C=C/C(=O)c4ccc(Br)cc4)cc4ccccc43)nn2)cc1` [Compound 36], the IC50 is 10.7 µM.

As to `O=C(/C=C/c1cc2ccccc2n(Cc2cn(-c3ccc(Cl)cc3)nn2)c1=O)c1ccc(Cl)cc1` [Compound 53], the concentration for half-maximal inhibition (IC50) worked out at 9 µM.

As for `COc1ccc(C(=O)/C=C/c2cc3ccccc3n(Cc3cn(-c4ccc(OC)cc4)nn3)c2=O)cc1` [Compound 31], the IC50 was at least 50 µM.

As for `COc1ccccc1C(=O)/C=C/c1cc2ccccc2n(Cc2cn(-c3ccc(Cl)cc3)nn2)c1=O` [Compound 56], the IC50 stood at 3.2 µM.

The same data set, now with this note: Giardia duodenalis, 48 h, microaerobic conditions (~5% O2, Anaerocult C), 48 h, 37 °C, ATP level; read-out: Giardia (microaerobiosis) IC50.
For `O=C(/C=C/c1cc2ccccc2n(Cc2cn(-c3ccc(Cl)cc3)nn2)c1=O)c1cccc(F)c1` [Compound 51], the IC50 turned out to be 0.9 µM.

For the compound `Cc1ccc(C(=O)/C=C/c2cc3ccccc3n(Cc3cn(-c4ccccc4)nn3)c2=O)cc1` [Compound 64], the IC50 came out at 0.5 µM.

As to `O=C(/C=C/c1cc2ccccc2n(Cc2cn(-c3ccc(Cl)cc3)nn2)c1=O)c1ccc(F)cc1` [Compound 52], the IC50 stood at 1.2 µM.

For `Cc1ccc(-n2cc(Cn3c(=O)c(/C=C/C(=O)c4ccc(Br)cc4)cc4ccccc43)nn2)cc1` [Compound 36], the half-inhibitory concentration (IC50) was determined as 2.3 µM.

For `O=C(/C=C/c1cc2ccccc2n(Cc2cn(-c3ccc(Cl)cc3)nn2)c1=O)c1ccc(Cl)cc1` [Compound 53], the IC50 amounted to 1.1 µM.

As to `COc1ccc(C(=O)/C=C/c2cc3ccccc3n(Cc3cn(-c4ccc(OC)cc4)nn3)c2=O)cc1` [Compound 31], the IC50 came to 2 µM.

Consider `COc1ccccc1C(=O)/C=C/c1cc2ccccc2n(Cc2cn(-c3ccc(Cl)cc3)nn2)c1=O` [Compound 56], for which the IC50 was 0.6 µM.

Staying with this data set, now noted: human (Caco-2 cells) versus Giardia intestinalis, Caco-2, SI = IC50,Caco-2/IC50,Giardia; Giardia under anaerobiosis; read-out: Selectivity (IC50,Caco/IC50,Giardia) Anaerobiosis.
For `O=C(/C=C/c1cc2ccccc2n(Cc2cn(-c3ccc(Cl)cc3)nn2)c1=O)c1cccc(F)c1` [Compound 51], the selectivity ratio at 48 h is at least 10.

As to `Cc1ccc(C(=O)/C=C/c2cc3ccccc3n(Cc3cn(-c4ccccc4)nn3)c2=O)cc1` [Compound 64], the selectivity ratio at 48 h came to 6.4.

`O=C(/C=C/c1cc2ccccc2n(Cc2cn(-c3ccc(Cl)cc3)nn2)c1=O)c1ccc(F)cc1` [Compound 52]: the selectivity ratio at 48 h was determined as 2.7.

Turning to `Cc1ccc(-n2cc(Cn3c(=O)c(/C=C/C(=O)c4ccc(Br)cc4)cc4ccccc43)nn2)cc1` [Compound 36], the selectivity ratio at 48 h was at least 4.

With `O=C(/C=C/c1cc2ccccc2n(Cc2cn(-c3ccc(Cl)cc3)nn2)c1=O)c1ccc(Cl)cc1` [Compound 53], the selectivity ratio at 48 h was at least 3.

In the case of `COc1ccccc1C(=O)/C=C/c1cc2ccccc2n(Cc2cn(-c3ccc(Cl)cc3)nn2)c1=O` [Compound 56], the selectivity ratio at 48 h is 2.6.

The data set is the same for the next values; noted with them: human (Caco-2 cells) versus Giardia intestinalis, Caco-2, SI = IC50,Caco-2/IC50,Giardia; Giardia under microaerobiosis; read-out: Selectivity (IC50,Caco/IC50,Giardia) Microaerobiosis.
As to `O=C(/C=C/c1cc2ccccc2n(Cc2cn(-c3ccc(Cl)cc3)nn2)c1=O)c1cccc(F)c1` [Compound 51], the selectivity ratio at 48 h was at least 111.

For the compound `Cc1ccc(C(=O)/C=C/c2cc3ccccc3n(Cc3cn(-c4ccccc4)nn3)c2=O)cc1` [Compound 64], the selectivity ratio at 48 h was 35.6.

Take `O=C(/C=C/c1cc2ccccc2n(Cc2cn(-c3ccc(Cl)cc3)nn2)c1=O)c1ccc(F)cc1` [Compound 52]: the selectivity ratio at 48 h is 19.9.

As to `Cc1ccc(-n2cc(Cn3c(=O)c(/C=C/C(=O)c4ccc(Br)cc4)cc4ccccc43)nn2)cc1` [Compound 36], the selectivity ratio at 48 h is at least 21.

For `O=C(/C=C/c1cc2ccccc2n(Cc2cn(-c3ccc(Cl)cc3)nn2)c1=O)c1ccc(Cl)cc1` [Compound 53], the selectivity ratio at 48 h was at least 27.

For the compound `COc1ccc(C(=O)/C=C/c2cc3ccccc3n(Cc3cn(-c4ccc(OC)cc4)nn3)c2=O)cc1` [Compound 31], the selectivity ratio at 48 h is at least 40.

`COc1ccccc1C(=O)/C=C/c1cc2ccccc2n(Cc2cn(-c3ccc(Cl)cc3)nn2)c1=O` [Compound 56]: the selectivity ratio at 48 h is 14.

(Values after PMC4389562, “Antigiardial activity of novel triazolyl-quinolone-based chalcone derivatives: when oxygen makes the difference” (Frontiers in Microbiology, 2015).)
